According to ChEMBL document CHEMBL3232720, “Boseongazepines A-C, pyrrolobenzodiazepine derivatives from a Streptomyces sp. 11A057” (Bioorg Med Chem Lett, 2014):
Active and inactive are the calls of the source. The calls are words filed in the database; no cut-off is given here.

What was measured:
Bacillus subtilis = assay: Antimicrobial activity against Bacillus subtilis assessed as growth inhibition at 50 ug/disk after 48 hrs by paper disk method; format: functional, organism-based
HepG2 = assay: Growth inhibition of human HepG2 cells after 96 hrs by EZ-CyTox cell viability assay; format: functional, cell-based; settings: HepG2, 96 h
Staphylococcus aureus = assay: Antimicrobial activity against Staphylococcus aureus assessed as growth inhibition at 50 ug/disk after 48 hrs by paper disk method; format: functional, organism-based
Escherichia coli = assay: Antimicrobial activity against Escherichia coli assessed as growth inhibition at 50 ug/disk after 48 hrs by paper disk method; format: functional, organism-based
K562 = assay: Growth inhibition of human K562 cells after 96 hrs by EZ-CyTox cell viability assay; format: functional, cell-based; settings: K562, 96 h
Candida albicans = assay: Antimicrobial activity against Candida albicans assessed as growth inhibition at 50 ug/disk after 48 hrs by paper disk method; format: functional, organism-based
Salinivibrio costicola = assay: Antimicrobial activity against Vibrio costicola assessed as growth inhibition at 50 ug/disk after 48 hrs by paper disk method; format: functional, organism-based
Aspergillus fumigatus = assay: Antimicrobial activity against Aspergillus fumigatus assessed as growth inhibition at 50 ug/disk after 48 hrs by paper disk method; format: functional, organism-based
Jurkat = assay: Growth inhibition of human Jurkat cells after 96 hrs by EZ-CyTox cell viability assay; format: functional, cell-based
HL-60 = assay: Growth inhibition of human HL60 cells after 96 hrs by EZ-CyTox cell viability assay; format: functional, cell-based; settings: HL-60, 96 h

Row | Structure (SMILES) | growth inhibition (GI) (Bacillus subtilis) | IC50 (HepG2) | growth inhibition (GI) (Staphylococcus aureus) | growth inhibition (GI) (Escherichia coli) | IC50 (K562) | growth inhibition (GI) (Candida albicans) | growth inhibition (GI) (Salinivibrio costicola) | growth inhibition (GI) (Aspergillus fumigatus) | IC50 (Jurkat) | IC50 (HL-60)
1 | C/C=C1\C[C@H]2CNc3ccccc3C(=O)N2C1 | inactive | 68.9 µM | inactive | inactive | 58.8 µM | inactive | inactive | inactive | 23.9 µM | 64.5 µM
2 | C/C=C1\C[C@H]2CNc3c(OC)cccc3C(=O)N2C1 [USABAMYCIN B] | inactive | 10.6 µM | inactive | inactive | 10.1 µM | inactive | inactive | inactive | 6.26 µM | 13.5 µM
3 | COc1cccc2c1NC[C@@H]1CC(C(C)=O)=CN1C2=O | inactive | 56.1 µM | inactive | inactive | > 100 µM | inactive | inactive | inactive | 72 µM | > 100 µM
4 | C/C=C1\C[C@H]2C(=O)Nc3c(OC)cccc3C(=O)N2C1 | inactive | > 100 µM | inactive | inactive | > 100 µM | inactive | inactive | inactive | > 100 µM | > 100 µM
